The target of one data set is human Nav1.8 (Homo sapiens (Human), UniProt Q9Y5Y9). Kind of data set: E-VIPR optical membrane potential assay with electrical stimulation. Particulars: HEK cells expressing human Nav1.8. Format: cell-based. The source says:
E-VIPR Optical Membrane Potential Assay Method with Electrical Stimulation
Sodium channels are voltage-dependent proteins that can be activated by inducing membrane voltage changes by applying electric fields. The electrical stimulation instrument and methods of use are described in Ion Channel Assay Methods PCT/US01/21652, herein incorporated by reference and are referred to as E-VIPR. The instrument comprises a microtiter plate handler, an optical system for exciting the coumarin dye while simultaneously recording the coumarin and oxonol emissions, a waveform generator, a current- or voltage-controlled amplifier, and a device for inserting electrodes in well. Under integrated computer control, this instrument passes user-programmed electrical stimulus protocols to cells within the wells of the microtiter plate.
24 hours before the assay on E-VIPR, HEK cells expressing human Nav1.8 were seeded in 384-well poly-lysine coated plates at 15,000-20,000 cells per well. HEK cells were grown in media (exact composition is specific to each cell type and NaV subtype) supplemented with 10% FBS (Fetal Bovine Serum, qualified; GibcoBRL #16140-071) and 1% Pen-Strep (Penicillin-Streptomycin; GibcoBRL #15140-122). Cells were grown in vented cap flasks, in 90% humidity and 5% CO2.
• 100 mg/mL Pluronic F-127 (Sigma #P2443), in dry DMSO • Compound Plates: 384-well round bottom plate, e.g. Corning 384-well Polypropylene Round Bottom #3656 • Cell Plates: 384-well tissue culture treated plate, e.g. Greiner #781091-1B • 10 mM DiSBAC6(3) (Aurora #00-100-010) in dry DMSO • 10 mM CC2-DMPE (Aurora #00-100-008) in dry DMSO • 200 mM ABSC1 in H20
Bath1 buffer: Glucose 10 mM (1.8 g/L), Magnesium Chloride (Anhydrous), 1 mM (0.095 g/L), Calcium Chloride, 2 mM (0.222 g/L), HEPES 10 mM (2.38 g/L), Potassium Chloride, 4.5 mM (0.335 g/L), Sodium Chloride 160 mM (9.35 g/L).
Hexyl Dye Solution: Bath1 Buffer+0.5% β-cyclodextrin (make this prior to use, Sigma #C4767), 8 μM CC2-DMPE+2.5 μM DiSBAC6(3). To make the solution Added volume of 10% Pluronic F127 stock equal to volumes of CC2-DMPE+DiSBAC6(3). The order of preparation was first mix Pluronic and CC2-DMPE, then added DiSBAC6(3) while vortexing, then added Bath1+β-Cyclodextrin.
1) Pre-spotted compounds (in neat DMSO) into compound plates. Vehicle control (neat DMSO), the positive control (20 mM DMSO stock tetracaine, 125 μM final in assay) and test compounds were added to each well at 160× desired final concentration in neat DMSO. Final compound plate volume was 80 μL (80-fold intermediate dilution from 1 μL DMSO spot; 160-fold final dilution after transfer to cell plate). Final DMSO concentration for all wells in assay was 0.625%.
2) Prepared Hexyl Dye Solution.
3) Prepared cell plates. On the day of the assay, medium was aspirated and cells were washed three times with 100 μL of Bath1 Solution, maintaining 25 μL residual volume in each well.
4) Dispensed 25 μL per well of Hexyl Dye Solution into cell plates. Incubated for 20-35 minutes at room temp or ambient conditions.
5) Dispensed 80 μL per well of Bath1 into compound plates. Acid Yellow-17 (1 mM) was added and Potassium Chloride was altered from 4.5 to 20 mM depending on the NaV subtype and assay sensitivity.
6) Washed cell plates three times with 100 μL per well of Bath1, leaving 25 μL of residual volume. Then transferred 25 uL per well from Compound Plates to Cell Plates. Incubated for 20-35 minutes at room temp/ambient condition.
7) Read Plate on E-VIPR. Used the current-controlled amplifier to deliver stimulation wave pulses for 10 seconds and a scan rate of 200 Hz. A pre-stimulus recording was performed for 0.5 seconds to obtain the un-stimulated intensities baseline. The stimulatory waveform was followed by 0.5 seconds of post-stimulation recording to examine the relaxation to the resting state.
Data was analyzed and reported as normalized ratios of emission intensities measured in the 460 nm and 580 nm channels. […]

Data set [1] is described as follows: Human liver microsome assay. The conditions noted are these: 1 uM substrate, 0.5 mg/mL liver microsome, 2 mM NADPH, 37° C., referenced against time zero control. Format: in vitro ADME. The procedure:
Human Liver Microsome Assay Protocol
Liver microsomal stability data were generated as follows. Substrates were incubated at 37° C. and shaken for 30 minutes in a phosphate buffered solution with human liver microsomes and the cofactor NADPH. A time zero control was similarly prepared, however with NADPH excluded. The final incubation concentrations were 1 uM substrate (0.2% DMSO), 0.5 mg/mL liver microsome, 2 mM NADPH, and 0.1 M phosphate. Reactions were quenched and proteins precipitated with the addition of 2 volume equivalents of ice cold acetonitrile containing an internal standard. Following a centrifugation step, aliquots from the quenched incubations were further diluted with 4 volume equivalents of a 50% aqueous methanol solution and then subjected to LC/MS/MS analysis for quantitation of parent substrate. Microsome stability values were calculated as the percent of substrate remaining after 30 minutes referenced against the time zero control.

Chain of human Nav1.8 (Q9Y5Y9 whole entry): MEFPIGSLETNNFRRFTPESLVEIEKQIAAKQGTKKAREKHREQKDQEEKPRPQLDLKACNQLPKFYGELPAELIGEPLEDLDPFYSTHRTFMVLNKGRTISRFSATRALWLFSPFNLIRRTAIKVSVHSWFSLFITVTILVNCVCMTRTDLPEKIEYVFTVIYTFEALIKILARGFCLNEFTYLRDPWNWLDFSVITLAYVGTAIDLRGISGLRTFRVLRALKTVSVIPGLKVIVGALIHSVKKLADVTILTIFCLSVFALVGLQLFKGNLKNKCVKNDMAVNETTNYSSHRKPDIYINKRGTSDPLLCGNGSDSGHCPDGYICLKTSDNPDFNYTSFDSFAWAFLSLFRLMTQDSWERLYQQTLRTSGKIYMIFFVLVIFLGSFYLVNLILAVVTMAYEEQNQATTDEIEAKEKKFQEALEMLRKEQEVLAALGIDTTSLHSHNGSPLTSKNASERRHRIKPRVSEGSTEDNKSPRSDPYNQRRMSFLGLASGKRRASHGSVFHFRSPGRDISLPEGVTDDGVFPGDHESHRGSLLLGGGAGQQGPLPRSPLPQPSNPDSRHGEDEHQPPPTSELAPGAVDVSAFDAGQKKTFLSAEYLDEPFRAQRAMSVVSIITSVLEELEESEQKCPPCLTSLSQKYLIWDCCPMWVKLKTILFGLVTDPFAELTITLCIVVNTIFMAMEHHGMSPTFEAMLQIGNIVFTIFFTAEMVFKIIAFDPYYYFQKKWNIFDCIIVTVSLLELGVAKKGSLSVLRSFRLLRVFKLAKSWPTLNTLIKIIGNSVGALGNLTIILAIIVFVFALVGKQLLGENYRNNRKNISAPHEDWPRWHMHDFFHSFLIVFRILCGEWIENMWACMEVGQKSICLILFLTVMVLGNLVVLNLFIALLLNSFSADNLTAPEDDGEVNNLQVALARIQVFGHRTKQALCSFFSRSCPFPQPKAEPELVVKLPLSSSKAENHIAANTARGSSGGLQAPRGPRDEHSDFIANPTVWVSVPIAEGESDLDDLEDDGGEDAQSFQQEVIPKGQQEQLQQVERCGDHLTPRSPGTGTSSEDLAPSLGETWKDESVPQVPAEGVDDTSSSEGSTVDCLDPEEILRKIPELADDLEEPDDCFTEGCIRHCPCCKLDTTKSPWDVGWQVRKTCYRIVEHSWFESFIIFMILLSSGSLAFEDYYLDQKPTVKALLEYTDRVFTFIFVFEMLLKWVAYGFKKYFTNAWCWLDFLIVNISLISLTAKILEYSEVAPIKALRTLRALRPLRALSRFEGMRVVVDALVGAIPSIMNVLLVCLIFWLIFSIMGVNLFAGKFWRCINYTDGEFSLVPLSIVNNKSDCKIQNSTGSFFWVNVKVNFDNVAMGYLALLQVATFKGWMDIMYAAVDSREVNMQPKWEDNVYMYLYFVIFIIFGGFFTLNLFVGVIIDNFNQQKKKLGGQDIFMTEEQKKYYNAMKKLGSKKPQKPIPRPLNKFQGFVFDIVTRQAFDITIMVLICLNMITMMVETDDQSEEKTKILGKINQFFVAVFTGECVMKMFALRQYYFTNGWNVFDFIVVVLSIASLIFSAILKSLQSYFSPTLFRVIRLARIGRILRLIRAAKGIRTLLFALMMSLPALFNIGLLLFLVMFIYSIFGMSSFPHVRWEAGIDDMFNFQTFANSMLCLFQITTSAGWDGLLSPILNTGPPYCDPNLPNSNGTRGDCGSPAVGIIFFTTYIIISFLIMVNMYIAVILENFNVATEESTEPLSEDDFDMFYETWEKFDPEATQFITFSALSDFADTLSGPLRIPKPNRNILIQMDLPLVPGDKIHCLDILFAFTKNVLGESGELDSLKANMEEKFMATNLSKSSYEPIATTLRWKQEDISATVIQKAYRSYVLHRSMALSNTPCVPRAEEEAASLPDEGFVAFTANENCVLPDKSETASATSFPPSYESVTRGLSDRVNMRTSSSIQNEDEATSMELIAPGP

The IC50 is the concentration at which inhibition is half-maximal. `Cc1cc(F)ccc1Oc1ccc(Cl)cc1C(=O)Nc1cccc(S(N)(=O)=O)c1` [Compound 20, 5-chloro-2-(4-fluoro-2-methylphenoxy)-N-(3-sulfamoylphenyl)benzamide] had an IC50 at human Nav1.8 of 4 nM. In data set [1], the “HLM: percent unchanged after 30 min” value stood at 96%.

In the case of `Cc1cc(F)ccc1Oc1ccc(F)cc1C(=O)Nc1cccc(S(N)(=O)=O)c1` [Compound 21, 5-fluoro-2-(4-fluoro-2-methylphenoxy)-N-(3-sulfamoylphenyl)benzamide], the IC50 against human Nav1.8 came to 23 nM. For the same compound, the “HLM: percent unchanged after 30 min” value in data set [1] is 96%.

For the compound `COc1ccc(Oc2ccc(C(F)(F)F)cc2C(=O)Nc2cccc(S(N)(=O)=O)c2)cc1` [Compound 22, 2-(4-methoxyphenoxy)-N-(3-sulfamoylphenyl)-5-(trifluoromethyl)benzamide], the IC50 against human Nav1.8 was 28 nM. Moreover, in data set [1], the “HLM: percent unchanged after 30 min” value is given as 88%.

As for `CCOc1ccc(Oc2ccc(C(F)(F)F)cc2C(=O)Nc2cccc(S(N)(=O)=O)c2)cc1` [Compound 23, 2-(4-ethoxyphenoxy)-N-(3-sulfamoylphenyl)-5-(trifluoromethyl)benzamide], on human Nav1.8, half-maximal inhibition (IC50) was put at 14 nM. Moreover, the “HLM: percent unchanged after 30 min” value in data set [1] came to 75%.

`NS(=O)(=O)c1cccc(NC(=O)c2cc(C(F)(F)F)ccc2Oc2ccc(Cl)cc2)c1` [Compound 24, 2-(4-chlorophenoxy)-N-(3-sulfamoylphenyl)-5-(trifluoromethyl)benzamide] gave an IC50 against human Nav1.8 of 30 nM. The “HLM: percent unchanged after 30 min” value in data set [1] amounted to 102%.

On human Nav1.8, `Cc1cc(F)ccc1Oc1ccc(C(F)(F)F)cc1C(=O)Nc1cccc(S(N)(=O)=O)c1` [Compound 25, 2-(4-fluoro-2-methylphenoxy)-N-(3-sulfamoylphenyl)-5-(trifluoromethyl)benzamide] came in with an IC50 of 4 nM. The “HLM: percent unchanged after 30 min” value in data set [1] came to 94%.

`NS(=O)(=O)c1cccc(NC(=O)c2cc(C(F)(F)F)ccc2Oc2ccc(F)cc2Cl)c1` [Compound 26, 2-(2-chloro-4-fluorophenoxy)-N-(3-sulfamoylphenyl)-5-(trifluoromethyl)benzamide] returned an IC50 on human Nav1.8 of 4 nM. Also, in data set [1], the “HLM: percent unchanged after 30 min” value turned out to be 119%.

At human Nav1.8, `COc1cc(F)ccc1Oc1ccc(C(F)(F)F)cc1C(=O)Nc1cccc(S(N)(=O)=O)c1` [Compound 27, 2-(4-fluoro-2-methoxyphenoxy)-N-(3-sulfamoylphenyl)-5-(trifluoromethyl)benzamide] had an IC50 of 6 nM. In addition, the “HLM: percent unchanged after 30 min” value in data set [1] stood at 101%.

`COc1ccc(Oc2ccc(C(F)(F)F)cc2C(=O)Nc2cccc(S(N)(=O)=O)c2)cc1F` [Compound 28, 2-(3-fluoro-4-methoxyphenoxy)-N-(3-sulfamoylphenyl)-5-(trifluoromethyl)benzamide] yielded an IC50 against human Nav1.8 of 16 nM. In addition, the “HLM: percent unchanged after 30 min” value in data set [1] was 92%.

The compound `COc1c(F)cccc1Oc1ccc(C(F)(F)F)cc1C(=O)Nc1cccc(S(N)(=O)=O)c1` [Compound 29, 2-(3-fluoro-2-methoxyphenoxy)-N-(3-sulfamoylphenyl)-5-(trifluoromethyl)benzamide] had an IC50 at human Nav1.8 of 5 nM. In addition, the “HLM: percent unchanged after 30 min” value in data set [1] amounted to 100%.

Regarding `Cc1cc(Cl)ccc1Oc1ccc(C(F)(F)F)cc1C(=O)Nc1cccc(S(N)(=O)=O)c1` [Compound 30, 2-(4-chloro-2-methylphenoxy)-N-(3-sulfamoylphenyl)-5-(trifluoromethyl)benzamide], the IC50 against human Nav1.8 came out at 9 nM. In data set [1], the “HLM: percent unchanged after 30 min” value is reported as 103%.

For `COc1ccc(Oc2ccc(C(F)(F)F)cc2C(=O)Nc2cccc(S(N)(=O)=O)c2)c(Cl)c1` [Compound 31, 2-(2-chloro-4-methoxyphenoxy)-N-(3-sulfamoylphenyl)-5-(trifluoromethyl)benzamide], on human Nav1.8, the IC50 is 6 nM. Also, the “HLM: percent unchanged after 30 min” value in data set [1] was 82%.

On to `Cc1ccccc1Oc1ccc(C(F)(F)F)cc1C(=O)Nc1cccc(S(N)(=O)=O)c1` [Compound 32, N-(3-sulfamoylphenyl)-2-(o-tolyloxy)-5-(trifluoromethyl)benzamide], for which the IC50 against human Nav1.8 turned out to be 8 nM. For the same compound, the “HLM: percent unchanged after 30 min” value in data set [1] is 76%.

On human Nav1.8, `NS(=O)(=O)c1cccc(NC(=O)c2c(Oc3ccc(F)cc3Cl)cccc2C(F)(F)F)c1` [Compound 33, 2-(2-chloro-4-fluorophenoxy)-N-(3-sulfamoylphenyl)-6-(trifluoromethyl)benzamide] registered an IC50 of 5 nM. For the same compound, in data set [1], the “HLM: percent unchanged after 30 min” value is recorded as 102%.

On to `COc1ccccc1Oc1ccc(C(F)(F)F)cc1C(=O)Nc1cccc(S(N)(=O)=O)c1` [Compound 34, 2-(2-methoxyphenoxy)-N-(3-sulfamoylphenyl)-5-(trifluoromethyl)benzamide], for which inhibition against human Nav1.8 was half-maximal at 14 nM (IC50). Further, the “HLM: percent unchanged after 30 min” value in data set [1] was 96%.

At human Nav1.8, `COc1cc(Cl)ccc1Oc1ccc(C(F)(F)F)cc1C(=O)Nc1cccc(S(N)(=O)=O)c1` [Compound 35, 2-(4-chloro-2-methoxyphenoxy)-N-(3-sulfamoylphenyl)-5-(trifluoromethyl)benzamide] displayed an IC50 of 5 nM. For the same compound, in data set [1], the “HLM: percent unchanged after 30 min” value is 82%.

`COc1ccc(Oc2ccc(C(F)(F)F)cc2C(=O)Nc2cccc(S(N)(=O)=O)c2)c(OC)c1` [Compound 36, 2-(2,4-dimethoxyphenoxy)-N-(3-sulfamoylphenyl)-5-(trifluoromethyl)benzamide]: the IC50 against human Nav1.8 was 4 nM. Moreover, the “HLM: percent unchanged after 30 min” value in data set [1] is 66%.

`CC(C)Oc1ccc(Oc2ccc(C(F)(F)F)cc2C(=O)Nc2cccc(S(N)(=O)=O)c2)cc1` [Compound 37, 2-(4-isopropoxyphenoxy)-N-(3-sulfamoylphenyl)-5-(trifluoromethyl)benzamide] registered an IC50 on human Nav1.8 of 6 nM. In addition, the “HLM: percent unchanged after 30 min” value in data set [1] is given as 76%.

`Cc1cccc(Oc2ccc(F)cc2Cl)c1C(=O)Nc1cccc(S(N)(=O)=O)c1` [Compound 38, 2-(2-chloro-4-fluorophenoxy)-6-methyl-N-(3-sulfamoylphenyl)benzamide] returned an IC50 against human Nav1.8 of 14 nM. Further, the “HLM: percent unchanged after 30 min” value in data set [1] was determined as 105%.

On to `NS(=O)(=O)c1cccc(NC(=O)c2cc(C(F)(F)F)ccc2Oc2ccc(OC(F)(F)F)cc2)c1` [Compound 39, N-(3-sulfamoylphenyl)-2-(4-(trifluoromethoxy)phenoxy)-5-(trifluoromethyl)benzamide], for which half-maximal inhibition against human Nav1.8 (IC50) was put at 10 nM. In data set [1], the “HLM: percent unchanged after 30 min” value is on record as 104%.

In the case of `NS(=O)(=O)c1cccc(NC(=O)c2cc(C(F)F)ccc2Oc2ccc(F)cc2Cl)c1` [Compound 40, 2-(2-chloro-4-fluorophenoxy)-5-(difluoromethyl)-N-(3-sulfamoylphenyl)benzamide], inhibition against human Nav1.8 was half-maximal at 7 nM (IC50). Further, the “HLM: percent unchanged after 30 min” value in data set [1] is 107%.

For the origin of these results see patent US11203571B2, “Sulfonamides as modulators of sodium channels” (VERTEX PHARMACEUTICALS INCORPORATED, priority 2013, dated 2021).
